The species entered for test [1] is Mus musculus. The test can be described thus: (§1) Dose which protected 50 % of the mice from a tonic convulsion. It is filed as functional.
Test [2] deals with Mus musculus. As to the kind of experiment: Dose which protected 50 % of the mice from a tonic convulsion, pretreatment was before 3 hr by i.v. administration in MES test. It is filed as functional. The conditions noted are these: iv.
Test [3] concerns the target T1, Glutamate receptor ionotropic, AMPA (Rattus norvegicus, UniProt P19490+P19491+P19492+P19493).
Description: Affinity towards Ionotropic glutamate receptor AMPA using [3H]AMPA as ligand on rat cortical membrane preparations
A further test concerns the target Glutamate NMDA receptor. As to the kind of experiment: In vitro binding affinity towards NMDA glutamate receptor using [3H]5,7-dichlorokynurenate as ligand on rat cortical membrane preparations.
For test [4], the species on record is Mus musculus. The description is as §1. It is filed as functional. This is another data set of the same source.
The subject of test [5] is Mus musculus. As to the kind of experiment: Dose which protected 50 % of the mice from a tonic convulsion, pretreatment was before 3 hr by i.v. administration in MES test at 40 mg/kg (Inactive). Set-up: dose 40 mg/kg. It is filed as functional, organism-based.
Test [6] deals with T1, Glutamate receptor ionotropic, AMPA. This is another data set of the same source.
Description: Compound was evaluated for potent antagonist intrinsic activity against Ionotropic glutamate receptor AMPA

The values below come from ChEMBL document CHEMBL1133991, “Bioisosteres of 9-carboxymethyl-4-oxo-imidazo[1,2-a]indeno-[1,2-e]pyrazin-2-carboxylic acid derivatives. Progress towards selective, potent in vivo AMPA antagonists with longer durations of action” (Bioorg Med Chem Lett, 2001).

The source made the active and inactive calls. The calls are words filed in the database; no cut-off is given here.

As usually defined, the ED50 is the dose at which the effect has come halfway, by size or by number of responders. What is called IC50 is the point on the concentration scale where inhibition reaches its midpoint.

For `O=C(O)Cc1cn2c3c(nc(O)c2n1)-c1cccc(CC(=O)O)c1C3`, the ED50 in the test filed under Mus musculus [1] worked out at 0.5 mg/kg; in the test on Mus musculus [2], 28 mg/kg.

Consider `O=C(O)CCc1cn2c3c(nc(O)c2n1)-c1cccc(CC(=O)O)c1C3`, for which the figures for the IC50 (in test [3]; on Glutamate NMDA receptor) were 31 nM and 1600 nM, respectively. The same molecule registered an ED50 in the test filed under Mus musculus [4] of 1.9 mg/kg.

As to `CNC(=O)Cc1cccc2c1Cc1c-2nc(O)c2nc(C(=O)O)cn12`, the results for the IC50 (in test [3]; at Glutamate NMDA receptor) were 189 nM and 328 nM, respectively. For the same molecule, the figures for the ED50 in the test filed under Mus musculus [1], in the test on Mus musculus [2] and in the test listed under Mus musculus [4] were 5 mg/kg, > 20 mg/kg and 10 mg/kg, respectively.

With `CS(=O)(=O)NC(=O)Cc1cccc2c1Cc1c-2nc(O)c2nc(C(=O)O)cn12`, the IC50 was 235 nM in test [3] and 1200 nM at Glutamate NMDA receptor.

As to `O=C(O)/C=C/c1cn2c3c(nc(O)c2n1)-c1cccc(CC(=O)O)c1C3`, the IC50 in test [3] is 30 nM; at Glutamate NMDA receptor it was > 10000 nM. For the same molecule, the ED50 in the test listed under Mus musculus [1] is 3.8 mg/kg; in the test with Mus musculus [2], 25.6 mg/kg; in the test listed under Mus musculus [4], 2.2 mg/kg.

Turning to `O=C(O)Cc1cccc2c1Cc1c-2nc(O)c2nc(P(=O)(O)O)cn12`, the values for the concentration for half-maximal inhibition (IC50) (in test [3]; at Glutamate NMDA receptor) were 150 nM and > 10000 nM, respectively. Also, the ED50 in the test filed under Mus musculus [1] is 2.9 mg/kg; in the test with Mus musculus [2], 3.5 mg/kg; in the test filed under Mus musculus [4] it was 3.5 mg/kg.

As to `O=C(O)Cc1cccc2c1Cc1c-2nc(O)c2nc(CP(=O)(O)O)cn12`, the values for the half-inhibitory concentration (IC50) (in test [3]; at Glutamate NMDA receptor) were 147 nM and > 10000 nM, respectively. Moreover, the ED50 in the test filed under Mus musculus [1] is 2.5 mg/kg; in the test on Mus musculus [2], 22.4 mg/kg; in the test listed under Mus musculus [4], 4.7 mg/kg.

In the test listed under Mus musculus [1], `O=C(O)[C@@H]1C[C@H]2C[C@@H](CCc3nn[nH]n3)CC[C@H]2CN1` [TEZAMPANEL ANHYDROUS] returned an ED50 of 3.4 mg/kg.

On to `O=C(O)c1cn2c3c(nc(O)c2n1)-c1cccc(Cc2nn[nH]n2)c1C3`, for which the IC50 came to 15 nM in test [3] and 537 nM on Glutamate NMDA receptor. Moreover, the ED50 came to 2 mg/kg in the test listed under Mus musculus [1] and 2.3 mg/kg in the test listed under Mus musculus [4]. Also, the ED50 entry in the test on Mus musculus [5] was “inactive”.

Consider `O=C(Cc1cccc2c1Cc1c-2nc(O)c2nc(C(=O)O)cn12)NS(=O)(=O)c1ccccc1`, for which the IC50 in test [3] was determined as 139 nM; on Glutamate NMDA receptor, 2000 nM.

As to `O=C(O)Cc1cccc2c1Cc1c-2nc(O)c2nc(C(=O)O)cn12`, in the test with Mus musculus [2], the ED50 worked out at 25.6 mg/kg.

As to `O=c1[nH]c2cc(-n3ccnc3)c([N+](=O)[O-])cc2[nH]c1=O` [YM-90K], in the test on Mus musculus [2], the ED50 was > 40 mg/kg.

Turning to `O=C(O)Cc1cccc2c1Cc1c-2nc(O)c2nc(-c3ccccc3C(=O)O)cn12`, the IC50 came to 100 nM in test [3] and 6100 nM at Glutamate NMDA receptor.

For `O=C(O)Cc1cccc2c1Cc1c-2nc(O)c2nc(-c3cccc(C(=O)O)c3)cn12`, the IC50 amounted to 40 nM in test [3] and 7200 nM at Glutamate NMDA receptor. The molecule further yielded an ED50 in the test listed under Mus musculus [4] of 8.6 mg/kg.

Regarding `O=C(O)Cc1cccc2c1Cc1c-2nc(O)c2nc(-c3ccc(C(=O)O)cc3)cn12`, the IC50 in test [3] turned out to be 12 nM; on Glutamate NMDA receptor, 5800 nM. Moreover, the ED50 in the test listed under Mus musculus [1] came out at 5 mg/kg; with Mus musculus [2], 15 mg/kg; in the test filed under Mus musculus [4], 5 mg/kg.

Regarding `O=C(O)c1cn2c3c(nc(O)c2n1)-c1cccc(CP(=O)(O)O)c1C3`, the IC50 in test [3] is 586 nM; on Glutamate NMDA receptor, > 10000 nM. This molecule also gave an ED50 in the test listed under Mus musculus [4] of 5.6 mg/kg.

As to `O=P(O)(O)c1cn2c3c(nc(O)c2n1)-c1cccc(Cc2nn[nH]n2)c1C3`, the figures for the IC50 (in test [3]; on Glutamate NMDA receptor; in test [6]) were 13 nM, 2360 nM and 6 nM, respectively. In addition, the ED50 in the test filed under Mus musculus [1] is 0.8 mg/kg; in the test on Mus musculus [2] it was 3.5 mg/kg; in the test filed under Mus musculus [4], 1 mg/kg.
